This note sets out measurements from patent publication US20250302815A1, “PROTEIN TYROSINE PHOSPHATASE TARGETING LIGANDS” (CALICO LIFE SCIENCES LLC, priority 2021, published 2025).

The target of one experiment is T1, PTPN2 (B16F10.4 cells) (Mus musculus, UniProt Q06180).
T1 construct: HiBiT; host or cells: B16F10.4
T1 sequence (Q06180 1-406): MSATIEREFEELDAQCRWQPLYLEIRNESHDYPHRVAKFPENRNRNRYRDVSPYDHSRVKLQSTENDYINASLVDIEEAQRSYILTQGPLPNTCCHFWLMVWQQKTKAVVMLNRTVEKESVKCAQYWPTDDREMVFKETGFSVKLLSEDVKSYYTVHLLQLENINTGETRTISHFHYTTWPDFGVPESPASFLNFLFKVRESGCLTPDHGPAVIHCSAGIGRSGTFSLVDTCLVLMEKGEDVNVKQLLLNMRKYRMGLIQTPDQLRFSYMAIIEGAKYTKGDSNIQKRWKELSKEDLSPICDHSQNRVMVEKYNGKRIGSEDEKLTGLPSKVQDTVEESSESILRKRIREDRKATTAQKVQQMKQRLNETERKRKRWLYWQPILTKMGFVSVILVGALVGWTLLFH
Put plainly: HiBiT Degradation B16F10.4 PTPN2. In kind it is cell-based. Conditions: 24.0 hours.

For experiment [1], the target named is T2, PTPN2 (HiBIT-PTPN2 in 293T.109 cells) (Homo sapiens, UniProt P17706).
T2 construct: expressed in transfected cells; host or cells: 293T.109 (293T WT from ATCC)
T2 sequence (P17706 1-415): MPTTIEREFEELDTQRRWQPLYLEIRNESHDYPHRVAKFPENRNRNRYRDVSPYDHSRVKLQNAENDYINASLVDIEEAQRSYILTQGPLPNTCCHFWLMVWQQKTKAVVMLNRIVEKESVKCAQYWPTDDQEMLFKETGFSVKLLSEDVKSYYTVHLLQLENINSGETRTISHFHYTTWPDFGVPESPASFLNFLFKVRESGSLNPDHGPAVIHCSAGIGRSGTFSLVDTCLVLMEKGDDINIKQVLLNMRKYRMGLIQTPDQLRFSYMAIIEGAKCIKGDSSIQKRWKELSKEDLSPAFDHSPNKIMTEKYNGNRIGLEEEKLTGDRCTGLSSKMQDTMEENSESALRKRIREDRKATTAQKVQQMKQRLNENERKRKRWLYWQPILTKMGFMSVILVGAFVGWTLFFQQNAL
As to the kind of experiment: HiBiT Degradation 293T.109 PTPN2 (Nano-Glo HiBiT Lytic Assay). In kind it is cell-based. To be noted: 24.0 hours. Put shortly:
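Degradation read-out: lytic HiBiT luminescence after 24 h treatment (37 °C, 5% CO2) of 5000 293T cells per well expressing HiBiT-fused PTPN2 from an N-terminal tag. Dosing was 11 points, half-log steps down from 10 μM, in duplicate; vehicle-treated and no-reagent wells served as controls.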

Structures are written as SMILES. Several values for one entry are separate records, joined by “and”; a condition that tells them apart may be missing. Equal entries are not always repeated.

As for `CC1(C)C[C@@H](Nc2cccc(-c3sc(C(=O)O)c(OCC(=O)O)c3Cl)c2)CCN1S(=O)(=O)Cc1cccc(NC(=O)N2CCC(c3ccc4c5c(cccc35)C(=O)N4C3CCC(=O)NC3=O)CC2)c1` (stereo partly drawn) [Example 82, 3-(carboxymethoxy)-4-chloro-5-[3-[[(4S)-1-[[3-[[4-[1-(2,6-dioxo-3-piperidyl)-2-oxo-benzo[cd]indol-6-yl]piperidine-1-carbonyl]amino]phenyl]methylsulfonyl]-2,2-dimethyl-4-piperidyl]amino]phenyl]thiophene-2-carboxylic acid], the DC50 (at PTPN2 (B16F10.4 cells); in experiment [1]) was less than 50 nM in each case.
With `Cn1c(=O)n([C@@H]2CCC(=O)NC2=O)c2ccc([C@@H]3CCN(C(=O)Nc4cccc(CS(=O)(=O)N5CC[C@H](Nc6cccc(-c7sc(C(=O)O)c(OCC(=O)O)c7Cl)c6)CC5(C)C)c4)CC3(F)F)cc21` (single isomer, unassigned) [Example 169b], the DC50 (at PTPN2 (B16F10.4 cells); in experiment [1]) was 50 to 200 nM throughout.
With `CC(C)n1c(=O)n(C2CCC(=O)NC2=O)c2ccc(C3CCN(C(=O)Nc4cccc(CS(=O)(=O)N5CC[C@H](Nc6cccc(-c7sc(C(=O)O)c(OCC(=O)O)c7Cl)c6)CC5(C)C)c4)CC3)cc21` (stereo partly drawn) [Example 87, 3-(carboxymethoxy)-4-chloro-5-[3-[[(4S)-1-[[3-[[4-[1-(2,6-dioxo-3-piperidyl)-3-isopropyl-2-oxo-benzimidazol-5-yl]piperidine-1-carbonyl]amino]phenyl]methylsulfonyl]-2,2-dimethyl-4-piperidyl]amino]phenyl]thiophene-2-carboxylic acid], the DC50 on PTPN2 (B16F10.4 cells) was 50 to 200 nM and < 50 nM; in experiment [1], 50 to 200 nM.
As to `CC1(C)C[C@@H](Nc2cccc(-c3sc(C(=O)O)c(OCC(=O)O)c3Cl)c2)CCN1S(=O)(=O)Cc1cccc(NC(=O)[C@H]2CC[C@H](C(=O)Nc3cccc4c3CN(C3CCC(=O)NC3=O)C4=O)CC2)c1` (stereo partly drawn) [Example 86, 3-(carboxymethoxy)-4-chloro-5-(3-(((4S)-1-((3-((1r,4R)-4-((2-(2,6-dioxopiperidin-3-yl)-1-oxoisoindolin-4-yl)carbamoyl)cyclohexane-1-carboxamido)benzyl)sulfonyl)-2,2-dimethylpiperidin-4-yl)amino)phenyl)thiophene-2-carboxylic acid], the DC50 at PTPN2 (B16F10.4 cells) was 200 to 1000 nM; in experiment [1], 50 to 200 nM.
`CC1(C)C[C@@H](Nc2cccc(-c3sc(C(=O)O)c(OCC(=O)O)c3Cl)c2)CCN1S(=O)(=O)Cc1cccc(NC(=O)NCCCc2cc3c4c(cccc4c2)N(C2CCC(=O)NC2=O)C3=O)c1` (stereo partly drawn) [Example 215, 3-(carboxymethoxy)-4-chloro-5-[3-[[(4S)-1-[[3-[3-[1-(2,6-dioxo-3-piperidyl)-2-oxo-benzo[cd]indol-4-yl]propylcarbamoylamino]phenyl]methylsulfonyl]-2,2-dimethyl-4-piperidyl]amino]phenyl]thiophene-2-carboxylic acid]: the DC50 was in the range of 200 to 1000 nM at PTPN2 (B16F10.4 cells) and 50 to 200 nM in experiment [1].
The like results for `O=C(O)COc1c(C(=O)O)sc(-c2cccc(NC3CCN(S(=O)(=O)Cc4cccc(NC(=O)N5CCC(Nc6cccc7c6CN(C6CCC(=O)NC6=O)C7=O)CC5)c4)CC3)c2)c1Cl` (centres unmarked) [Example 59, 3-(carboxymethoxy)-4-chloro-5-[3-[[1-[[3-[[4-[[2-(2,6-dioxo-3-piperidyl)-1-oxo-isoindolin-4-yl]amino]piperidine-1-carbonyl]amino]phenyl]methylsulfonyl]-4-piperidyl]amino]phenyl]thiophene-2-carboxylic acid] were, in that order, 200 to 1000 nM and 200 to 1000 nM.
`CC(C)(c1cccc(NC(=O)CCCCCCNC(=O)CNc2cccc3c2CN(C2CCC(=O)NC2=O)C3=O)c1)S(=O)(=O)N1CCC(Nc2cccc(-c3sc(C(=O)O)c(OCC(=O)O)c3Cl)c2)CC1` (centres unmarked) [Example 40, 3-(carboxymethoxy)-4-chloro-5-[3-[[1-[1-[3-[7-[[2-[[2-(2,6-dioxo-3-piperidyl)-1-oxo-isoindolin-4-yl]amino]acetyl]amino]heptanoylamino]phenyl]-1-methyl-ethyl]sulfonyl-4-piperidyl]amino]phenyl]thiophene-2-carboxylic acid]: the DC50 is not below 1000 nM on PTPN2 (B16F10.4 cells) and 200 to 1000 nM in experiment [1].
